This is an account of results in ChEMBL document CHEMBL1909046, “DrugMatrix in vitro pharmacology data”.

The target in test [1] is T1, Adenosine receptor A3 (Homo sapiens, UniProt P0DMS8).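 Further: radioligand binding assay with AB-MECA serving as the labeled ligand.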
T1 sequence (P0DMS8 whole entry): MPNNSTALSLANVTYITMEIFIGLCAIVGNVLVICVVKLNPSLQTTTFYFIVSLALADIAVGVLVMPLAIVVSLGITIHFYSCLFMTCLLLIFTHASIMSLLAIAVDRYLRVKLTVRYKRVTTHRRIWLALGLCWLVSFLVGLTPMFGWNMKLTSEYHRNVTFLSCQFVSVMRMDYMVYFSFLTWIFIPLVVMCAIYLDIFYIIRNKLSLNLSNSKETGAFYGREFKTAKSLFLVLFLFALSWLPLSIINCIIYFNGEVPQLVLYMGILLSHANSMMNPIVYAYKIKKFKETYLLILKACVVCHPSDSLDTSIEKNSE
Type of test: cell membranes, CHO-K1, Membrane.

For test [2], the target named is T2, Polyunsaturated fatty acid lipoxygenase ALOX15 (Oryctolagus cuniculus, UniProt P12530).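 Further: inhibition of 15-lipoxygenase enzyme activity measured with linoleic acid as the substrate.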
T2 sequence (P12530 whole entry): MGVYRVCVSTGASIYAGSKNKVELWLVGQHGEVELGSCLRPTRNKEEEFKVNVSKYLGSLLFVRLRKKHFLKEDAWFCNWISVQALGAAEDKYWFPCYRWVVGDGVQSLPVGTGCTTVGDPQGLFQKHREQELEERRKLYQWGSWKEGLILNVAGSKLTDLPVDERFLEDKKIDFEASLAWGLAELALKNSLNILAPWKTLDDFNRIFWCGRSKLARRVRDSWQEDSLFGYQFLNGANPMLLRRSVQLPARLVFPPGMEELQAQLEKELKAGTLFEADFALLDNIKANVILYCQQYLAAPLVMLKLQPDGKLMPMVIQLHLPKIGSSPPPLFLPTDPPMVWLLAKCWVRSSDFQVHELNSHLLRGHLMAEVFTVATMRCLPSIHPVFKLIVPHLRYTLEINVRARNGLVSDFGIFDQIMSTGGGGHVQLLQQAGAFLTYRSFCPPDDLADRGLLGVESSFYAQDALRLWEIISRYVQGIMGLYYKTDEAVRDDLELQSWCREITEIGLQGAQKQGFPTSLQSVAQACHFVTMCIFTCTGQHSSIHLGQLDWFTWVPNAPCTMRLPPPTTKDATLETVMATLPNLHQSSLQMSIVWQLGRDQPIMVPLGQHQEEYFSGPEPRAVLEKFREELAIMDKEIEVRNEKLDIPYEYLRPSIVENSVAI
The test can be described thus: biochemical. Format: tissue-based, Reticulocytes.

Test [3] addresses Vasopressin V1a receptor (Homo sapiens, UniProt P37288). Format: cell membranes, Membrane. To be noted: hek293.
Test [4] deals with C-C chemokine receptor type 5 (Homo sapiens, UniProt P51681). Type of test: cell membranes, HEK293, Membrane. As to conditions: hek293.
Chain of C-C chemokine receptor type 5 (P51681 whole entry): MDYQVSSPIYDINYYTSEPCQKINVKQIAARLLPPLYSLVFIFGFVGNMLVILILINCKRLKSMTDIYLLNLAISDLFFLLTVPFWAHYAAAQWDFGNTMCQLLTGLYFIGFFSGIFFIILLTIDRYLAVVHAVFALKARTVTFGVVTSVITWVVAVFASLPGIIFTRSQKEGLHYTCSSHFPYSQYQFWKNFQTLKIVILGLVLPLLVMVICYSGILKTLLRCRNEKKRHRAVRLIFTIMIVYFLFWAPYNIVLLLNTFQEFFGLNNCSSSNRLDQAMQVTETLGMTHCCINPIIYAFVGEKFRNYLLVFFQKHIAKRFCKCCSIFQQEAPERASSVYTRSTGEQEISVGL
The target of test [5] is 5-hydroxytryptamine receptor 6 (Homo sapiens, UniProt P50406). Format: cell membranes, HeLa, Membrane. To be noted: hela.
Chain of 5-hydroxytryptamine receptor 6 (P50406 whole entry): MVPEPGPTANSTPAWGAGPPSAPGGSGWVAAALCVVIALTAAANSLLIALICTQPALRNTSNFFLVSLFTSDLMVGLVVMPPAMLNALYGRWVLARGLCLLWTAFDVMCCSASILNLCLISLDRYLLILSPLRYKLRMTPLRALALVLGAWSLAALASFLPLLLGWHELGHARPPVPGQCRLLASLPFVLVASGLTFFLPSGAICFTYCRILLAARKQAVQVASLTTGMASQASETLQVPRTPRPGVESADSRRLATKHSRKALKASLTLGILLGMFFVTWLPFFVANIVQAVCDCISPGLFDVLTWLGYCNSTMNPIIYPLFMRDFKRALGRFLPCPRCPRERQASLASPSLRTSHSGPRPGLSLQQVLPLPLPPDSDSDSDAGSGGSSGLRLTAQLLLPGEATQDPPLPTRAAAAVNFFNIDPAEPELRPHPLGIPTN
Test [6] has as its target Tyrosine-protein kinase Fyn (Homo sapiens, UniProt P06241). Put plainly: biochemical. Format: cell-based, Insect cells.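 Further: enzymatic inhibition of Fyn kinase activity measured with Poly(Glu:Tyr) as the phosphorylation substrate.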

By IC50 is commonly meant the point on the concentration scale where inhibition reaches its midpoint. As usually defined, the Ki is a dissociation constant, usually derived from enzyme kinetics or from competition with a known ligand.
Further: in other assays of this panel Not Active means under 50% inhibition at 10 µM.

Chain of Tyrosine-protein kinase Fyn (P06241 whole entry): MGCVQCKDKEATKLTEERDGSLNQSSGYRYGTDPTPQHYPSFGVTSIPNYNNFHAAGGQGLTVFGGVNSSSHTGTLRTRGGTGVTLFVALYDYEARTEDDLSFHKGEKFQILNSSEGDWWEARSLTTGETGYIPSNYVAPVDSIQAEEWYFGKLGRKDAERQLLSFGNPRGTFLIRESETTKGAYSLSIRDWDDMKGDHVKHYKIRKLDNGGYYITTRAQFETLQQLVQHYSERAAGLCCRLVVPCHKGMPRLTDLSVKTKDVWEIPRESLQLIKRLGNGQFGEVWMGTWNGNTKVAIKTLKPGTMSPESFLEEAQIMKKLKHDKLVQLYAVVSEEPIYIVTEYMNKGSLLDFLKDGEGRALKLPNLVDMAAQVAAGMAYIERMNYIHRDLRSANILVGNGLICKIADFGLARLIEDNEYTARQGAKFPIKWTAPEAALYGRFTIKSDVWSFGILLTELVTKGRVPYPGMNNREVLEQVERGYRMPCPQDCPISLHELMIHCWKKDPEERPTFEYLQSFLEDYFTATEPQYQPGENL
Chain of Vasopressin V1a receptor (P37288 whole entry): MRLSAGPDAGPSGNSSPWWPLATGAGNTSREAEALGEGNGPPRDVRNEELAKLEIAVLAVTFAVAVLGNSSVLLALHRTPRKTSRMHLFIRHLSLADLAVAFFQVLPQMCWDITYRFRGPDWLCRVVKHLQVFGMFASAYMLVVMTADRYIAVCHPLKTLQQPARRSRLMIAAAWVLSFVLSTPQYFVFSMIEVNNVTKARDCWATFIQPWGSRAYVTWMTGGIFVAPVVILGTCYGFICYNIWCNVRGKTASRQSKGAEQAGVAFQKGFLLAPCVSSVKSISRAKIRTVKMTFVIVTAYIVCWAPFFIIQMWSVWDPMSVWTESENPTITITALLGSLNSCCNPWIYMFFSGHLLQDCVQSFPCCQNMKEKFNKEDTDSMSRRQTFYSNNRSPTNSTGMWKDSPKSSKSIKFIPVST

With `O=C(O)c1cc(/N=N/c2ccc(S(=O)(=O)Nc3ccccn3)cc2)ccc1O` [SULFASALAZINE], the IC50 entry in test [1] (cho-k1), in test [2] (reticulocytes), in test [3], in test [4], in test [5] and in test [6] (insect cells) was “Not Active” in each case.

`CCN1CCCC1CNC(=O)c1cc(S(N)(=O)=O)ccc1OC` (configuration not stated) [SULPIRIDE]: the IC50 entry in test [1] (cho-k1), in test [2] (reticulocytes), in test [3], in test [4], in test [5] and in test [6] (insect cells) was “Not Active” in each case.

For the compound `O=C(OC[C@H]1O[C@@H](OC(=O)c2cc(O)c(O)c(OC(=O)c3cc(O)c(O)c(O)c3)c2)[C@H](OC(=O)c2cc(O)c(O)c(OC(=O)c3cc(O)c(O)c(O)c3)c2)[C@@H](OC(=O)c2cc(O)c(O)c(OC(=O)c3cc(O)c(O)c(O)c3)c2)[C@@H]1OC(=O)c1cc(O)c(O)c(OC(=O)c2cc(O)c(O)c(O)c2)c1)c1cc(O)c(O)c(OC(=O)c2cc(O)c(O)c(O)c2)c1` [TANNIC ACID], the IC50 entry in test [1] (cho-k1) is “Not Active”; in test [2] (read-out: IC50) it was 0.268 µM; in test [3], “Not Active”; in test [4] it was “Not Active”; in test [5] it was “Not Active”; in test [6] (read-out: IC50), 0.022 µM.

For the compound `C#C[C@]1(O)CC[C@H]2[C@@H]3[C@H](C)CC4=C(CCC(=O)C4)[C@H]3CC[C@@]21C` [TIBOLONE], the 50% inhibitory concentration (IC50) entry in test [1] (cho-k1), in test [2] (reticulocytes), in test [3], in test [4], in test [5] and in test [6] (insect cells) was “Not Active” in each case.

Regarding `Cc1cccc(C)c1NC(=O)C(C)N` (configuration not stated) [TOCAINIDE], the half-inhibitory concentration (IC50) result in test [1] (cho-k1), in test [2] (reticulocytes), in test [3], in test [4], in test [5] and in test [6] (insect cells) was “Not Active” throughout.

In the case of `Cc1ccc(S(=O)(=O)NC(=O)NN2CCCCCC2)cc1` [TOLAZAMIDE], the half-maximal inhibitory concentration (IC50) entry is “Not Active” in test [1] (cho-k1); 5.11 µM in test [2] (read-out: IC50); “Not Active” in test [3]; “Not Active” in test [4]; “Not Active” in test [5]; “Not Active” in test [6] (insect cells).

Take `CC[C@@]1(O)C(=O)OCc2c1cc1n(c2=O)Cc2cc3c(CN(C)C)c(O)ccc3nc2-1` [TOPOTECAN]: the concentration for half-maximal inhibition (IC50) entry in test [1] (cho-k1), in test [2] (reticulocytes), in test [3], in test [4], in test [5] and in test [6] (insect cells) was “Not Active” each time.

As for `CC1=C(/C=C/C(C)=C/C=C/C(C)=C/C(=O)O)C(C)(C)CCC1` [TRETINOIN], the half-inhibitory concentration (IC50) in test [1] (read-out: IC50) is 5.27 µM; in test [2] (reticulocytes), “Not Active”; in test [3], “Not Active”; in test [4], “Not Active”; in test [5], “Not Active”; in test [6] (insect cells), “Not Active”. For the same compound, the Ki in test [1] (read-out: Ki) came out at 2.98 µM.

`CC(Cl)(Cl)Cl` [TRICHLOROETHANE]: the IC50 entry in test [1] (cho-k1), in test [2] (reticulocytes), in test [3], in test [4], in test [5] and in test [6] (insect cells) was “Not Active” in each case.

Consider `CN1C(=O)OC(C)(C)C1=O` [TRIMETHADIONE], for which the IC50 entry in test [1] (cho-k1), in test [2] (reticulocytes), in test [3], in test [4], in test [5] and in test [6] (insect cells) was “Not Active” throughout.

LEAD(IV) ACETATE: the 50% inhibitory concentration (IC50) entry in test [1] (cho-k1) is “Not Active”; in test [2] (reticulocytes), “Not Active”; in test [3] it was “Not Active”; in test [4], “Not Active”; in test [5] it was “Not Active”; in test [6] (insect cells, read-out: IC50), 3.31 µM. In addition, the Ki result in test [1] (cho-k1), in test [2] (reticulocytes), in test [3], in test [4] and in test [5] was “Not Active” each time.
